From US20220340633A1 (Adepthera LLC, priority 2016, published 2022)
Like-named read-outs stand apart in the source and are kept apart here. Positions of bridges follow the written chain, without caps; N, C: chain ends. Non-standard residues stand in square brackets, D forms with d. Residues, ends and D or L forms follow the SMILES beside them. *: point of attachment. Palmitoyl = CCCCCCCCCCCCCCCC(=O)*; AEEA = NCCOCCOCC(=O)O

Experiments:
CLR/RAMP2 receptor = target: T1, CLR/RAMP2 receptor (Homo sapiens, UniProt O60895+Q16602); assay: CLR/RAMP2 arrestin receptor activation assay (agonist); assay type: cell-based; details: CHO-K1, read-out: CLR/RAMP 2 Max Activity % of positive control, CHO-K1 cells; % of positive control (ADM)
T1 construct: host or cells: CHO-K1 cells
T1 sequence (Q16602 23-461): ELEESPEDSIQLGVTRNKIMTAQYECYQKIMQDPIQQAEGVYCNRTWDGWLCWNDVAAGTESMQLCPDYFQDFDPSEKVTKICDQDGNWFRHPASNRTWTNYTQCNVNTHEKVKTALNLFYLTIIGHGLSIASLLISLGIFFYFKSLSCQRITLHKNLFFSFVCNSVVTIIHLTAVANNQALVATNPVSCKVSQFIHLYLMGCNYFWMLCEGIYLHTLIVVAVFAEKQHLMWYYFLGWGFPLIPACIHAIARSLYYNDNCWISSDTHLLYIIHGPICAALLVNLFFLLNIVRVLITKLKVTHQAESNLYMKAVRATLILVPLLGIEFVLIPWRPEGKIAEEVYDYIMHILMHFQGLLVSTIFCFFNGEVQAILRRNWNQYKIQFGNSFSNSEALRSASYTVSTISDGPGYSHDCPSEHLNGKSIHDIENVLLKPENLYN
T1 sequence (O60895 43-175): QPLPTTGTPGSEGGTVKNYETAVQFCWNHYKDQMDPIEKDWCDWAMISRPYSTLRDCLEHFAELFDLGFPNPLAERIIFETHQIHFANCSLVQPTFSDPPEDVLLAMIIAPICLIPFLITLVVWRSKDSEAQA

CLR/RAMP1 receptor = CLR/RAMP1 receptor (Homo sapiens, UniProt O60894+Q16602); assay: CLR/RAMP1 cAMP receptor activation assay (agonist); assay type: cell-based; parameters: host or cells: 1321N1 cells; details: % of positive control (β-CGRP)
Chain of CLR/RAMP1 receptor (Q16602 23-461): as the sequence (Q16602 23-461) above
Chain of CLR/RAMP1 receptor (O60894 27-148): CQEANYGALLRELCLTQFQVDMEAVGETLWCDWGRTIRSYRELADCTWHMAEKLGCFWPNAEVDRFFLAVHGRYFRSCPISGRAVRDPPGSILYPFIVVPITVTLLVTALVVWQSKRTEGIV

[1] = 1321-N1, read-out: CLR/RAMP 1 Max Activity % of positive control, 1321N1 cells

| Structure (SMILES) | Emax (CLR/RAMP2 receptor) [%] | Emax (CLR/RAMP1 receptor; [1]) [%] | Emax (CLR/RAMP1 receptor; 1321-N1, 1321N1 cells, read-out: CLR/RAMP 1 Max Activity % of positive control) [%] |
| --- | --- | --- | --- |
| CCCCCCCCCCCCCCCC(=O)NCCCC[C@H](NC(=O)COCCOCCN)C(=O)NCC(=O)N[C@H]1CSSC[C@@H](C(=O)N[C@H](C(=O)N[C@H](C(=O)N[C@@H](CCC(N)=O)C(=O)N[C@@H](CCCCN)C(=O)N[C@@H](CC(C)C)C(=O)N[C@@H](C)C(=O)N[C@@H](Cc2c[nH]cn2)C(=O)N[C@@H](CCC(N)=O)C(=O)N[C@H](C(=O)N[C@@H](Cc2ccc(O)cc2)C(=O)N[C@@H](CCC(N)=O)C(=O)N[C@@H](Cc2ccccc2)C(=O)N[C@H](C(=O)N[C@@H](CC(=O)O)C(=O)N[C@@H](CCCCN)C(=O)NCC(=O)N[C@@H](CCCNC(=N)N)C(=O)N[C@@H](CCC(N)=O)C(=O)N[C@@H](CC(=O)O)C(=O)N[C@@H](CO)C(=O)N[C@@H](C)C(=O)N2CCC[C@H]2C(=O)N[C@H](C(=O)N[C@@H](CC(=O)O)C(=O)N2CCC[C@H]2C(=O)N[C@@H](CO)C(=O)N[C@@H](CO)C(=O)N2CCC[C@H]2C(=O)N[C@@H](Cc2c[nH]cn2)C(=O)N[C@@H](CO)C(=O)N[C@@H](Cc2ccc(O)cc2)C(N)=O)C(C)C)[C@@H](C)O)[C@@H](C)CC)C(C)C)[C@@H](C)O)NC(=O)[C@H]([C@@H](C)O)NC(=O)CNC(=O)[C@H](Cc2ccccc2)NC(=O)[C@H](CCCNC(=N)N)NC1=O [SEQ ID NO: 68] | 70 |  |  |
| CCCCCCCCCCCCCCCC(=O)NCCCC[C@H](NC(=O)COCCOCCN)C(=O)NCC(=O)N[C@H]1CSSC[C@@H](C(=O)N[C@H](C(=O)N[C@H](C(=O)N[C@@H](CCC(N)=O)C(=O)N[C@@H](CCCCN)C(=O)N[C@@H](CC(C)C)C(=O)N[C@@H](C)C(=O)N[C@@H](Cc2c[nH]cn2)C(=O)N[C@@H](CCC(N)=O)C(=O)N[C@H](C(=O)N[C@@H](Cc2ccc(O)cc2)C(=O)N[C@@H](CCC(N)=O)C(=O)N[C@@H](Cc2ccccc2)C(=O)N[C@H](C(=O)N[C@@H](CC(=O)O)C(=O)N[C@@H](CCCCN)C(=O)N[C@@H](CC(=O)O)C(=O)N[C@@H](CCCCN)C(=O)N[C@@H](CCC(N)=O)C(=O)N[C@@H](CC(=O)O)C(=O)N[C@@H](CO)C(=O)N[C@@H](C)C(=O)N2CCC[C@H]2C(=O)N[C@H](C(=O)N[C@@H](CC(=O)O)C(=O)N2CCC[C@H]2C(=O)N[C@@H](CO)C(=O)N[C@@H](CO)C(=O)N2CCC[C@H]2C(=O)N[C@@H](Cc2c[nH]cn2)C(=O)N[C@@H](CO)C(=O)N[C@@H](Cc2ccc(O)cc2)C(N)=O)C(C)C)[C@@H](C)O)[C@@H](C)CC)C(C)C)[C@@H](C)O)NC(=O)[C@H]([C@@H](C)O)NC(=O)CNC(=O)[C@H](Cc2ccccc2)NC(=O)[C@H](CCCNC(=N)N)NC1=O [SEQ ID NO: 51] (H-[AEEA]K(Palmitoyl)GCRFGTCTVQKLAHQIYQFTDKDKQDSAPVDPSSPHSY-NH2; disulfide 4-9) | 107 | 65 |  |
| CCCCCCCCCCCCCCCC(=O)NCCCC[C@H](NC(=O)COCCOCCN)C(=O)NCC(=O)N[C@H]1CSSC[C@@H](C(=O)N[C@H](C(=O)N[C@H](C(=O)N[C@@H](CCC(N)=O)C(=O)N[C@@H](CCCCN)C(=O)N[C@@H](CC(C)C)C(=O)N[C@@H](C)C(=O)N[C@@H](Cc2c[nH]cn2)C(=O)N[C@@H](CCC(N)=O)C(=O)N[C@H](C(=O)N[C@@H](Cc2ccc(O)cc2)C(=O)N[C@@H](CCC(N)=O)C(=O)N[C@@H](Cc2ccccc2)C(=O)N[C@H](C(=O)N[C@@H](CC(=O)O)C(=O)N[C@@H](CCCCN)C(=O)N[C@@H](CC(=O)O)C(=O)N[C@@H](CCCCN)C(=O)N[C@@H](CC(=O)O)C(=O)N[C@@H](CC(N)=O)C(=O)N[C@H](C(=O)N[C@@H](C)C(=O)N2CCC[C@H]2C(=O)N[C@H](C(=O)N[C@@H](CC(=O)O)C(=O)N2CCC[C@H]2C(=O)N[C@@H](CO)C(=O)N[C@@H](CO)C(=O)N2CCC[C@H]2C(=O)N[C@@H](Cc2c[nH]cn2)C(=O)N[C@@H](CO)C(=O)N[C@@H](Cc2ccc(O)cc2)C(N)=O)C(C)C)C(C)C)[C@@H](C)O)[C@@H](C)CC)C(C)C)[C@@H](C)O)NC(=O)[C@H]([C@@H](C)O)NC(=O)CNC(=O)[C@H](Cc2ccccc2)NC(=O)[C@H](CCCNC(=N)N)NC1=O [SEQ ID NO: 50] | 87 | 65 |  |
| CCCCCCCCCCCCCCCC(=O)NCCCC[C@H](NC(=O)COCCOCCN)C(=O)N[C@H]1CSSC[C@@H](C(=O)N[C@H](C(=O)N[C@H](C(=O)N[C@@H](CCC(N)=O)C(=O)N[C@@H](CCCCN)C(=O)N[C@@H](CC(C)C)C(=O)N[C@@H](C)C(=O)N[C@@H](Cc2c[nH]cn2)C(=O)N[C@@H](CCC(N)=O)C(=O)N[C@H](C(=O)N[C@@H](Cc2ccc(O)cc2)C(=O)N[C@@H](CCC(N)=O)C(=O)N[C@@H](Cc2ccccc2)C(=O)N[C@H](C(=O)N[C@@H](CC(=O)O)C(=O)N[C@@H](CCCCN)C(=O)N[C@@H](CC(=O)O)C(=O)N[C@@H](CCCCN)C(=O)N[C@@H](CC(=O)O)C(=O)N[C@@H](CC(N)=O)C(=O)N[C@@H](CO)C(=O)N[C@@H](C)C(=O)N2CCC[C@H]2C(=O)N[C@H](C(=O)N[C@@H](CC(=O)O)C(=O)N2CCC[C@H]2C(=O)N[C@@H](CO)C(=O)N[C@@H](CO)C(=O)N2CCC[C@H]2C(=O)N[C@@H](Cc2c[nH]cn2)C(=O)N[C@@H](CO)C(=O)N[C@@H](Cc2ccc(O)cc2)C(N)=O)C(C)C)[C@@H](C)O)[C@@H](C)CC)C(C)C)[C@@H](C)O)NC(=O)[C@H]([C@@H](C)O)NC(=O)CNC(=O)[C@H](Cc2ccccc2)NC(=O)[C@H](CCCNC(=N)N)NC1=O [SEQ ID NO: 43] (H-[AEEA]K(Palmitoyl)CRFGTCTVQKLAHQIYQFTDKDKDNSAPVDPSSPHSY-NH2; disulfide 3-8) | 30 | 39 |  |
| CSCC[C@H](NC(=O)CNC(=O)CNC(=O)[C@H](CO)NC(=O)[C@H](CCCNC(=N)N)NC(=O)[C@H](CO)NC(=O)[C@H](CC(C)C)NC(=O)[C@H](CC(C)C)NC(=O)CNC(=O)[C@H](C)NC(=O)[C@H](CC(C)C)NC(=O)[C@H](CCCNC(=N)N)NC(=O)[C@H](Cc1c[nH]cn1)NC(=O)[C@@H](NC(=O)[C@@H](NC(=O)[C@@H]1CSSC[C@H](NC(=O)[C@H](C)N)C(=O)N[C@@H](CC(N)=O)C(=O)N[C@@H]([C@@H](C)O)C(=O)N[C@@H](C)C(=O)N[C@@H]([C@@H](C)O)C(=O)N1)C(C)C)[C@@H](C)O)C(=O)N[C@H](C(=O)N[C@@H](CCCCN)C(=O)N[C@@H](CO)C(=O)N[C@@H](CC(N)=O)C(=O)N[C@@H](Cc1ccccc1)C(=O)N[C@H](C(=O)N1CCC[C@H]1C(=O)N[C@H](C(=O)N[C@@H](CC(N)=O)C(=O)N[C@H](C(=O)NCC(=O)N[C@@H](CO)C(=O)N[C@@H](CCCCN)C(=O)N[C@@H](C)C(=O)N[C@@H](Cc1ccccc1)C(N)=O)C(C)C)[C@@H](C)O)C(C)C)C(C)C [Wild type CGRP-β positive, reference compound] |  |  | 100 |
| CSCC[C@H](NC(=O)[C@H](CC(C)C)NC(=O)[C@H](CCC(N)=O)NC(=O)[C@H](Cc1c[nH]c2ccccc12)NC(=O)[C@H](CC(C)C)NC(=O)[C@H](Cc1c[nH]cn1)NC(=O)[C@H](C)NC(=O)[C@H](CC(C)C)NC(=O)[C@H](CCCCN)NC(=O)[C@H](CCC(N)=O)NC(=O)[C@@H](NC(=O)[C@@H](NC(=O)[C@@H]1CSSC[C@H](NC(=O)CNC(=O)[C@@H](NC(C)=O)C(C)C)C(=O)N[C@@H](CCCNC(=N)N)C(=O)N[C@@H](Cc2ccccc2)C(=O)NCC(=O)N[C@@H]([C@@H](C)O)C(=O)N1)[C@@H](C)O)C(C)C)C(=O)NCC(=O)N1CCC[C@H]1C(=O)N[C@@H](C)C(=O)NCC(=O)N[C@@H](CCCNC(=N)N)C(=O)N[C@@H](CCC(N)=O)C(=O)N[C@@H](CC(=O)O)C(=O)N[C@@H](CO)C(=O)N[C@@H](C)C(=O)N1CCC[C@H]1C(=O)N[C@H](C(=O)N[C@@H](CC(=O)O)C(=O)N1CCC[C@H]1C(=O)N[C@@H](CO)C(=O)N[C@@H](CO)C(=O)N1CCC[C@H]1C(=O)N[C@@H](Cc1c[nH]cn1)C(=O)N[C@@H](CO)C(=O)N[C@@H](Cc1ccc(O)cc1)C(N)=O)C(C)C [SEQ ID NO: 58] |  | 0 |  |
